Assay results: US9644002B2, “Allosteric modulators of EGFR and constitutively active mutants” (YALE UNIVERSITY, priority 2013, dated 2017)
“Also recorded” adds a separate entry of the source. Bridge positions count the residues as written; N and C are the ends. Square brackets hold non-standard residues; d marks the D form. Ends that are not written are not given here. R8 = C=CCCCCCC[C@@](C)(N)C(=O)O; S5 = C=CCCC[C@](C)(N)C(=O)O

Experiments:
[1] = test system: A431, H2030, H3255, H1975 and SK-N-MC cells; test: Cell viability across the cell line panel; format: cell-based; details: for effect on cell viability: all cell lines tested, 18 h incubation
Text: Error bars show standard error of the mean.

EGFR = EGFR (Homo sapiens, UniProt P00533); test: Immunoblot of EGFR phosphorylation in A431 cells; format: cell-based; details: 10 μM, Akt and Erk1/2 positions
Method: A431 cells were treated with 10 μM of the ligand shown for 2 hours, stimulated with 10 ng/mL EGF, then lysed, immunoblotted, and visualized. Plots illustrate the increase or decrease in the intensity of the indicated phospho-protein band between treated and untreated cells. Error bars representing standard error of the mean over at least 4 trials.
Activation of EGFR upon growth factor binding leads to a well characterized pattern of Tyr and Ser/Thr phosphorylation events that initiate downstream signaling networks (Olayioye, et al., 2000, EMBO J., 19, 3159). Molecules that block growth factor binding to the extracellular domain, or ATP binding to the intracellular kinase domain, inhibit the phosphorylation of both EGFR and downstream factors such as Erk and Akt (Yarden, et al., 2012, Nat. Rev. Cancer, 12, 553). Immunoblots were used to evaluate whether the effects of JM-A-derived ligands on the viability of EGFR-dependent cell lines correlated with their effects on EGFR phosphorylation and the activation of downstream factors. Specifically, phosphorylation was probed at EGFR tyrosines 845, 1045, 1068, 1086, and 1173, as well as for phospho-Akt (Ser473) and phospho-Erk1/2 (T202/Y204) (FIG. 19).

[2] = test system: EGFR CCH-1 juxtamembrane coiled coil; test: Bipartite tetracysteine display (ReAsH, TIRF) of intra-dimer coiled coil formation; format: cell-based; details: CHO cells; for change of EGF-induced ReAsH fluorescence: EGFR CCH-1, 1 μM ligand 1 hour, 100 ng/mL EGF
Method: FIG. 21 is a graph depicting the results of example experiments conducted to monitor EGFR intra-dimer coiled coil formation using TIRF and bipartite tetracysteine display. CHO cells were transiently transfected with EGFR CCH-1, treated with 1 μM of the indicated ligand for 1 hour, stimulated with 100 ng/mL EGF for 30 minutes, and labeled with ReAsH (Scheck et al., 2012, ACS Chem Biol, 7: 1367). […] Error bars represent standard error of the mean. *p<0.05, **p<0.01, ***p<0.001, ****p<0.0001, one-way ANOVA with Bonferroni post-analysis accounting for multiple comparisons.
Experiments were conducted using CHO cells expressing an EGFR variant (CCH-1) with a cysteine pair within the JM-A whose location supports ReAsH binding and fluorescence upon EGF-induced coiled coil assembly 24. […] CHO cells transiently expressing the EGFR variant CCH-1 on the cell surface were exposed to native and hydrocarbon-stapled peptides, stimulated with EGF, incubated with ReAsH, and the fluorescence increase due to ReAsH quantified using total internal reflectance fluorescence microscopy (TIR-FM). […] Identical results were observed when cells were treated first with EGF and then with the indicated peptides. None of the peptides tested had any effect on the extent of ReAsH fluorescence in the absence of EGF. […] This work validates the juxtamembrane segment as a viable allosteric target for inhibitor design.

wtEGFR = biological target: T1, wtEGFR (Homo sapiens, UniProt P00533); test: Sequestration of EGFR from CHO-K1 lysates by biotinylated peptides on streptavidin beads; format: binding; details: 25 μM biotinylated peptide, 1 hour
T1 construct: expressed in transfected cells; host or cells: CHO-K1 (transient transfection; lysate used)
Method: CHO-K1 lysates were treated with 25 μM of each biotinylated peptide shown for 1 hour, then incubated with streptavidin-coated beads overnight. Sequestered proteins were eluted, electrophoresed, and immunoblotted to detect EGFR. Band intensities were measured using ImageJ (Schneider et al., 2012, Nat. Meth., 9: 671).
Two additional experiments were performed to evaluate whether the E1^S-induced viability changes and decreases in EGFR and Erk/Akt phosphorylation resulted from a direct interaction with the EGFR JM segment. […] Each biotinylated analog (25 μM) was incubated for 1 hour with lysates from wtEGFR-expressing cells, and then incubated with Mag-Sepharose Streptavidin Beads overnight. A mock reaction lacking a biotinylated analog was run alongside. After washing, the sequestered proteins were eluted, resolved by SDS-PAGE (10%), probed with a commercial anti-EGFR antibody, visualized using a horseradish peroxidase-tagged mouse anti-rabbit secondary antibody, and quantified with chemiluminescent detection. […] Little or no EGFR was sequestered when no biotinylated peptide was added (mock), providing additional support for a direct interaction between the hydrocarbon-stapled peptide E1^S and the juxtamembrane segment of wild type EGFR.

| sequestration of full length wild type EGFR from cell lysates (wtEGFR) | Substance | effect on cell viability [1] | pattern of phosphorylation changes over all probed positions (EGFR) | change of EGF-induced ReAsH fluorescence [2] | further results |
| --- | --- | --- | --- | --- | --- |
| did not | ^BJM-WT: biotinylated analog of JM-WT (VRKRTLRRLLQERELVE; also: biotinylated) |  |  |  |  |
| did not | ^BT1^S: biotinylated analog of T1^S (VRKRT[S5]RRL[S5]QERELVE; staple 6-10 (inferred); also: biotinylated) |  |  |  |  |

The remaining lines, values behind:

| Substance | sequestration of full length wild type EGFR from cell lysates (wtEGFR) | effect on cell viability [1] | pattern of phosphorylation changes over all probed positions (EGFR) | change of EGF-induced ReAsH fluorescence [2] | further results |
| --- | --- | --- | --- | --- | --- |
| E1ΔL^S: hydrocarbon-stapled VRKRZARRAAQXRELVE (SEQ ID NO: 19; E1ΔL), leucines replaced by alanine (VRKR[R8]ARRAAQ[S5]RELVE; staple 5-12) |  | more modest effects on cell viability | little or no decrease in phosphorylation at any position | significant loss in ReAsH fluorescence | change of EGF-induced ReAsH fluorescence at a lower concentration ([2]; EGFR CCH-1, lower concentration than 1 μM): effectively reduced the ReAsH signal |
| JM-WT: unmodified EGFR JM-A peptide VRKRTLRRLLQERELVE (SEQ ID NO: 1) |  | none of the cells are sensitive; also recorded: inability to decrease the viability |  | unchanged |  |
| TE-64562: polypeptide containing the EGFR juxtamembrane segment fused to HIV Tat (Boran et al., 2012) (YGRKKRRQRRRVRKRTLRRLLQERELVE) [reference compound] |  | moderate decreases in viability | paralleled |  | effect on cell viability after 72 h ([1]; 72 h incubation): potency is mitigated significantly |
| ^BE1ΔL^S: biotinylated analog of E1ΔL^S (VRKR[R8]ARRAAQ[S5]RELVE; staple 5-12; also: biotinylated, site of biotin not given here) | sequestered; also recorded: sequester wtEGFR |  |  |  |  |
